One series has as its system IL-2. The series can be described thus: Cytokine suppression in splenocytes: IL-2. Format: cell-based, Balb/C mice. The following applies: 48 hrs. As to the method:
(§1) Naïve Balb/C mice were randomized in two groups. Mice from groups 1 and 2 were sacrificed and spleens were isolated. The Splenocytes were isolated and cultured in RPMI […] 1640 media with 10% FBS and 1% antibiotics in microtitre plate. Group 1 was incubated with PBS while group 2 was incubated with 10̂8 Mw cells. After 48 hrs the cell supernatant was separated and the levels of cytokines were checked using commercial kit from R & D systems (Cat # M2000, Cat # M4000B, Cat # M1240).
(§2) Naïve Balb/C mice were sacrificed and spleens were isolated for all five groups. The splenocytes were isolated from each group and cultured in RPMI 1640 media with […] in microtitre plate. The cells were plated in micro titer plate. The wells were divided into five sets. Set one was the control, set two was stimulated with Mw, set three with 10 mM of Dexamethasone set four with 10 mcM (micro mole) of Dexamethasone and set five with 1 mcM of dexammethasone. After 48 hrs of culture the cells were harvested and the cytokine assays were performed using commercial kits from R&D systems. (Cat #M5000, Cat #M4000B, Cat #M2000, Cat #M1240)

Another series has as its system IL-5. The series can be described thus: Cytokine suppression in splenocytes: IL-5. The note with it: 48 hrs. The class given is cell-based, Balb/C mice. The protocol:
as §1, §2

For series [1] the following is noted: after administration of 200 mg of Dexamethasone intravenously; cited from earlier work.
A further series has as its system IL-12p40. The series can be described thus: Cytokine suppression in splenocytes: IL-12p40. The class given is cell-based, Balb/C mice. The following applies: 48 hrs. The protocol: as §1, §2
A further series relates to IL-4. In words: Cytokine suppression in splenocytes: IL-4. The class given is cell-based, Balb/C mice. The note with it: 48 hrs. As to the method: as §1, §2

We go through one compound from patent US20100104536A1, “P38 INHIBITORS” (priority 2007, published 2010).

Turning to `C[C@@H]1C[C@H]2[C@@H]3CCC4=CC(=O)C=C[C@]4(C)[C@@]3(F)[C@@H](O)C[C@]2(C)[C@@]1(O)C(=O)CO` [Dexamethasone], the “In vitro % inhibition of IL-2” value in the series on IL-2 (Dexamethasone 1 mcM) is reported as 25.6%; with IL-2 (Dexamethasone 10 mcM) it was 33.7%. Besides, the inhibition (usually the percentage by which the read-out fell short of the control) at 10000 µM amounted to 70.6% in the series with IL-2 (Mus musculus, Splenocyte, Dexamethasone 10 mM, read-out: In vitro % inhibition of IL-2); 85.8% with IL-5 (Mus musculus, Splenocyte, Dexamethasone 10 mM, read-out: In vitro % inhibition of IL-5); 57.7% in the series with IL-12p40 (Mus musculus, Splenocyte, Dexamethasone 10 mM, read-out: In vitro % inhibition of IL-12p40); 93.7% with IL-4 (Mus musculus, Splenocyte, Dexamethasone 10 mM, read-out: In vitro % inhibition of IL-4). Besides, the “In vitro % inhibition of IL-5” value in the series on IL-5 (Dexamethasone 1 mcM) stood at 43.9%; in the series on IL-5 (Dexamethasone 10 mcM), 70.3%. Also, the maximum concentration (Cmax) (commonly the peak of the concentration-time curve) in series [1] was 10000 µM. Further, the “In vitro % inhibition of IL-12p40” value in the series with IL-12p40 (Dexamethasone 1 mcM) amounted to 33.7%; in the series with IL-12p40 (Dexamethasone 10 mcM) it was 47.1%. The “In vitro % inhibition of IL-4” value was determined as 61.9% in the series with IL-4 (Dexamethasone 1 mcM) and 84.5% in the series on IL-4 (Dexamethasone 10 mcM).
